Values after ≈ are worked out from the molar mass of the structure shown.
What was measured:
Format in all cases: functional
[1] = tested on: Candida albicans; test: Antifungal activity against Candida albicans isolate 6 by broth microdilution method
[2] = tested on: Candida albicans; test: Antifungal activity against Candida albicans isolate 14 by broth microdilution method
[3] = tested on: Candida albicans; test: Antifungal activity against Candida albicans isolate 177 by broth dilution method
[4] = tested on: Candida albicans; test: Antifungal activity against Candida albicans isolate 12 harboring ERG3 W332R mutant gene by broth microdilution method
[5] = tested on: Candida albicans; test: Antifungal activity against Candida albicans isolate 488 harboring ERG3 H243N, T330A, A351V and ERG11 D225G, E266D, E391G, V488I mutant genes by broth microdilution method
[6] = tested on: Candida albicans; test: Antifungal activity against Candida albicans isolate 490 harboring ERG3 D147G, T330A, A351V and ERG11 F72S, T229A, E266D, N440S, V488I, R523G mutant genes by broth microdilution method
[7] = tested on: Candida albicans; test: Antifungal activity against Candida albicans isolate 1008 harboring ERG3 K97E, L193P, V237A, A351V, A353T and ERG11 E266D mutant genes by broth microdilution method
[8] = tested on: Candida albicans; test: Antifungal activity against Candida albicans isolate 6 assessed as ergosterol content in total sterol composition at 0.5 times MIC by GC-MS analysis
[9] = tested on: Candida albicans; test: Antifungal activity against Candida albicans isolate 14 assessed as ergosterol content in total sterol composition at 0.5 times MIC by GC-MS analysis
[10] = tested on: Candida albicans; test: Antifungal activity against Candida albicans isolate 177 assessed as ergosterol content in total sterol composition at 0.5 times MIC by GC-MS analysis
[11] = tested on: Candida albicans; test: Antifungal activity against Candida albicans isolate 12 harboring ERG3 W332R mutant gene assessed as ergosterol content in total sterol composition at 0.5 times MIC by GC-MS analysis
[12] = tested on: Candida albicans; test: Antifungal activity against Candida albicans isolate 488 harboring ERG3 H243N, T330A, A351V and ERG11 D225G, E266D, E391G, V488I mutant genes assessed as ergosterol content in total sterol composition at 0.5 times MIC by GC-MS analysis
[13] = tested on: Candida albicans; test: Antifungal activity against Candida albicans isolate 490 harboring ERG3 D147G, T330A, A351V and ERG11 F72S, T229A, E266D, N440S, V488I, R523G mutant genes assessed as ergosterol content in total sterol composition at 0.5 times MIC by GC-MS analysis
[14] = tested on: Candida albicans; test: Antifungal activity against Candida albicans isolate 1008 harboring ERG3 K97E, L193P, V237A, A351V, A353T and ERG11 E266D mutant genes assessed as ergosta 7,22-dienol content in total sterol composition at 0.5 times MIC by GC-MS analysis
[15] = tested on: Candida albicans; test: Antifungal activity against Candida albicans isolate 177 assessed as 14alpha-methyl fecosterol content in total sterol composition at 0.5 times MIC by GC-MS analysis
[16] = tested on: Candida albicans; test: Antifungal activity against Candida albicans isolate 12 harboring ERG3 W332R mutant gene assessed as 14alpha-methyl fecosterol content in total sterol composition at 0.5 times MIC by GC-MS analysis
[17] = tested on: Candida albicans; test: Antifungal activity against Candida albicans isolate 488 harboring ERG3 H243N, T330A, A351V and ERG11 D225G, E266D, E391G, V488I mutant genes assessed as 14alpha-methyl fecosterol content in total sterol composition at 0.5 times MIC by GC-MS analysis
[18] = tested on: Candida albicans; test: Antifungal activity against Candida albicans isolate 490 harboring ERG3 D147G, T330A, A351V and ERG11 F72S, T229A, E266D, N440S, V488I, R523G mutant genes assessed as 14alpha-methyl fecosterol content in total sterol composition at 0.5 times MIC by GC-MS analysis
[19] = tested on: Candida albicans; test: Antifungal activity against Candida albicans isolate 1008 harboring ERG3 K97E, L193P, V237A, A351V, A353T and ERG11 E266D mutant genes assessed as 14alpha-methyl fecosterol content in total sterol composition at 0.5 times MIC by GC-MS analysis
[20] = tested on: Candida albicans; test: Antifungal activity against Candida albicans isolate 6 assessed as 14alpha-methylergosta-8,24(28)-dien-3beta,6alpha-diol content in total sterol composition at 0.5 times MIC by GC-MS analysis
[21] = tested on: Candida albicans; test: Antifungal activity against Candida albicans isolate 14 assessed as 14alpha-methylergosta-8,24(28)-dien-3beta,6alpha-diol content in total sterol composition at 0.5 times MIC by GC-MS analysis
[22] = tested on: Candida albicans; test: Antifungal activity against Candida albicans isolate 177 assessed as 14alpha-methylergosta-8,24(28)-dien-3beta,6alpha-diol content in total sterol composition at 0.5 times MIC by GC-MS analysis
[23] = tested on: Candida albicans; test: Antifungal activity against Candida albicans isolate 12 harboring ERG3 W332R mutant gene assessed as 14alpha-methylergosta-8,24(28)-dien-3beta,6alpha-diol content in total sterol composition at 0.5 times MIC by GC-MS analysis
[24] = tested on: Candida albicans; test: Antifungal activity against Candida albicans isolate 490 harboring ERG3 D147G, T330A, A351V and ERG11 F72S, T229A, E266D, N440S, V488I, R523G mutant genes assessed as 14alpha-methylergosta-8,24(28)-dien-3beta,6alpha-diol content in total sterol composition at 0.5 times MIC by GC-MS analysis
[25] = tested on: Candida albicans; test: Antifungal activity against Candida albicans isolate 14 assessed as lanosterol/obtusifoliol content in total sterol composition at 0.5 times MIC by GC-MS analysis
[26] = tested on: Candida albicans; test: Antifungal activity against Candida albicans isolate 12 harboring ERG3 W332R mutant gene assessed as lanosterol/obtusifoliol content in total sterol composition at 0.5 times MIC by GC-MS analysis
[27] = tested on: Candida albicans; test: Antifungal activity against Candida albicans isolate 488 harboring ERG3 H243N, T330A, A351V and ERG11 D225G, E266D, E391G, V488I mutant genes assessed as lanosterol/obtusifoliol content in total sterol composition at 0.5 times MIC by GC-MS analysis
[28] = tested on: Candida albicans; test: Antifungal activity against Candida albicans isolate 1008 harboring ERG3 K97E, L193P, V237A, A351V, A353T and ERG11 E266D mutant genes assessed as lanosterol/obtusifoliol content in total sterol composition at 0.5 times MIC by GC-MS analysis
[29] = tested on: Candida albicans; test: Antifungal activity against Candida albicans isolate 6 assessed as eburicol content in total sterol composition at 0.5 times MIC by GC-MS analysis
[30] = tested on: Candida albicans; test: Antifungal activity against Candida albicans isolate 177 assessed as eburicol content in total sterol composition at 0.5 times MIC by GC-MS analysis
[31] = tested on: Candida albicans; test: Antifungal activity against Candida albicans isolate 12 harboring ERG3 W332R mutant gene assessed as eburicol content in total sterol composition at 0.5 times MIC by GC-MS analysis
[32] = tested on: Candida albicans; test: Antifungal activity against Candida albicans isolate 488 harboring ERG3 H243N, T330A, A351V and ERG11 D225G, E266D, E391G, V488I mutant genes assessed as eburicol content in total sterol composition at 0.5 times MIC by GC-MS analysis
[33] = tested on: Candida albicans; test: Antifungal activity against Candida albicans isolate 1008 harboring ERG3 K97E, L193P, V237A, A351V, A353T and ERG11 E266D mutant genes assessed as eburicol content in total sterol composition at 0.5 times MIC by GC-MS analysis
[34] = tested on: Candida albicans; test: Antifungal activity against Candida albicans isolate 6 by broth microdilution method in presence of 10 uM drug efflux inhibitor FK506
[35] = tested on: Candida albicans; test: Antifungal activity against Candida albicans isolate 14 by broth microdilution method in presence of 10 uM drug efflux inhibitor FK506
[36] = tested on: Candida albicans; test: Antifungal activity against Candida albicans isolate 177 by broth dilution method in presence of 10 uM drug efflux inhibitor FK506
[37] = tested on: Candida albicans; test: Antifungal activity against Candida albicans isolate 12 harboring ERG3 W332R mutant gene by broth microdilution method in presence of 10 uM drug efflux inhibitor FK506
[38] = tested on: Candida albicans; test: Antifungal activity against Candida albicans isolate 488 harboring ERG3 H243N, T330A, A351V and ERG11 D225G, E266D, E391G, V488I mutant genes by broth microdilution method in presence of 10 uM drug efflux inhibitor FK506
[39] = tested on: Candida albicans; test: Antifungal activity against Candida albicans isolate 490 harboring ERG3 D147G, T330A, A351V and ERG11 F72S, T229A, E266D, N440S, V488I, R523G mutant genes by broth microdilution method in presence of 10 uM drug efflux inhibitor FK506
[40] = tested on: Candida albicans; test: Antifungal activity against Candida albicans isolate 1008 harboring ERG3 K97E, L193P, V237A, A351V, A353T and ERG11 E266D mutant genes by broth microdilution method in presence of 10 uM drug efflux inhibitor FK506

## CCC(C)n1ncn(-c2ccc(N3CCN(c4ccc(OCC5COC(Cn6cncn6)(c6ccc(Cl)cc6Cl)O5)cc4)CC3)cc2)c1=O (centres undefined) [ITRACONAZOLE]
[1]
  MIC: 16 µg/mL (≈ 22.7 µM)
[2]
  MIC: 0.0625 µg/mL (≈ 0.0886 µM)
[3]
  MIC: 16 µg/mL (≈ 22.7 µM)
[4]
  MIC: > 16 µg/mL
[5]
  MIC: > 16 µg/mL
[6]
  MIC: > 16 µg/mL
[7]
  MIC: > 16 µg/mL

## CC(=O)N1CCN(c2ccc(OCC3COC(Cn4ccnc4)(c4ccc(Cl)cc4Cl)O3)cc2)CC1 (centres undefined) [KETOCONAZOLE]
[1]
  MIC: 16 µg/mL (≈ 30.1 µM)
[2]
  MIC: 0.0625 µg/mL (≈ 0.118 µM)
[3]
  MIC: 16 µg/mL (≈ 30.1 µM)
[4]
  MIC: > 16 µg/mL
[5]
  MIC: 8 µg/mL (≈ 15.1 µM)
[6]
  MIC: 8 µg/mL (≈ 15.1 µM)
[7]
  MIC: > 16 µg/mL

## C[C@@H](c1ncncc1F)[C@](O)(Cn1cncn1)c1ccc(F)cc1F [VORICONAZOLE]
[8]
  Activity: 46.1%
[9]
  Activity: 47.3%
[10]
  Activity: 45%
[11]
  Activity: 2.9%
[12]
  Activity: 8%
[13]
  Activity: 6.3%
[14]
  Activity: 2.2%
[15]
  Activity: 2.9%
[16]
  Activity: 69.2%
[17]
  Activity: 57.2%
[18]
  Activity: 69.1%
[19]
  Activity: 65.1%
[20]
  Activity: 37.2%
[21]
  Activity: 28.6%
[22]
  Activity: 35.4%
[23]
  Activity: 1.8%
[24]
  Activity: 13.5%
[25]
  Activity: 24.1%
[26]
  Activity: 16.2%
[27]
  Activity: 15.8%
[28]
  Activity: 19%
[29]
  Activity: 4.8%
[30]
  Activity: 5%
[31]
  Activity: 9.9%
[32]
  Activity: 7.5%
[33]
  Activity: 13.7%
[1]
  MIC: 16 µg/mL (≈ 45.8 µM)
[2]
  MIC: 0.0625 µg/mL (≈ 0.179 µM)
[3]
  MIC: 16 µg/mL (≈ 45.8 µM)
[4]
  MIC: > 16 µg/mL
[5]
  MIC: > 16 µg/mL
[6]
  MIC: > 16 µg/mL
[7]
  MIC: > 16 µg/mL
[34]
  MIC: < 0.0625 µg/mL
[35]
  MIC: < 0.0625 µg/mL
[36]
  MIC: < 0.0625 µg/mL
[37]
  MIC: > 16 µg/mL
[38]
  MIC: 0.0625 µg/mL
[39]
  MIC: 0.0625 µg/mL
[40]
  MIC: > 16 µg/mL
